The record followed here is US20100022639A1, “Methods of Inducing Weight Loss” (The Johns Hopkins University School of Medicine Licensing …, priority 2000, published 2010).

One data set relates to hepatic malonyl-CoA. The data set is described as follows: Hepatic malonyl-CoA level after dextrose gavage and IP C-75. The data set is classed as in vivo, BALB/c mice. Conditions: 20 mg/kg IP, one hour post-treatment, after 2 g/kg dextrose. As for the experimental part: Male BALB/c mice (4 per group) were given 2 g/kg dextrose by oral gavage. After 15 min mice were injected IP with 20 mg/kg C-75 or RPMI vehicle. One hour post-treatment, livers were rapidly removed, frozen and pulverized in liquid nitrogen, HC104 extracted and assayed for malonyl-CoA [J. D. McGarry, M. J. Stark, D. W. Foster., J. Biol. Chem 253, 8291 (1978)]. Intraperitoneal injection of mice with C-75 leads to a 95% reduction in ^14C-acetate incorporation into fatty acids and to a 110% increase in the level of hepatic malonyl-CoA, the principal substrate of FAS. Experiments described in panels B and C were repeated twice.

The subject of a further data set is 3T3-L1 adipocytes. The data set is described as follows: Cytoplasmic triglyceride accumulation in adipocytes in cell culture. The data set is classed as cell-based. Conditions: 3T3-L1 adipocytes in cell culture (not shown).
Data set [1] can be described thus: Body weight of ob/ob mice over two week treatment. The data set is classed as in vivo. Conditions: 22 mg/kg IP every third day, two weeks. The source says:
The magnitude of this effect is readily evident by inspection of representative C-75 and control treated ob/ob mice.

Data set [2] concerns feeding behavior. In words: Food intake after a single IP injection (metabolic cages). The data set is classed as in vivo, BALB/c mice. Conditions: 15 mg/kg, first 24 hours. As for the experimental part:
Male BALB/c mice 19-22 g were weighed, treated by a single intra peritoneal (I.P.) injection and housed in metabolic cages. Body weight (FIG. 1.2A) and food intake (FIG. 1.2B) were monitored at 24 hour intervals.
Inhibitors of fatty acid synthesis would be expected to prevent triglyceride accumulation due to inhibition of de novo fatty acid synthesis and impact body weight in this manner. […] However, the dramatic C-75-induced weight loss cannot be accounted for by a blockade of fatty acid/triglyceride biosynthesis. Rather, the weight loss observed in response to C-75 treatment results primarily from an inhibition of feeding. The loss of adipose mass was accompanied by a reduction of lean body mass typical of that observed in fasting. Administration of 15 mg/kg body weight led to a greater than 90% reduction in food intake over the first 24 hours (FIG. 1.2B). Feeding behavior then returned to normal progressively over a 48-72 hour period as the drug effect dissipated. The role of feeding inhibition in C-75 induced weight loss was confirmed by studies in which forced feeding of the drug treated animals largely reversed the observed weight loss.

In data set [3] the test system is feeding behavior. In words: Food intake after ICV injection of C-75. The data set is classed as in vivo, mice. Conditions: ICV 2 μl at 2.5 or 5 μg/μl, food intake over 2 and 4 hours. As for the experimental part: This model predicts that feeding inhibition by FAS inhibitors should be attenuated by inhibitors of ACC's. To test this, mice were pretreated with the ACC inhibitor TOFA or vehicle by ICV injection and examined the ability of C-75, administered IP, to inhibit feeding. BALB/c mice were anesthetized with metofane and injected ICV with 2 μg of TOFA or DMSO vehicle. After 2 hours recovery, mice were injected IP with 15 mg C-75/kg or RPMI vehicle and monitored for total food intake over 2 hours. […] In addition, mice were anesthetized and injected ICV with 2 μl of RPMI or C-75 at 2.5 or 5 μg/μl and food intake monitored over 2 (shaded) and 4 (solid) hours. The efficacy of centrally administered TOFA argues for a central (CNS) mechanism of action. ICV administration of C-75 inhibited feeding by 82% (FIG. 5C), supporting the central target action of C-75. FIGS. 5(B) and (C) combine results from 3 experiments with N=3 for each (9 total).

For another data set, the system named is leptin. In words: Serum leptin ELISA. The data set is classed as in vivo, BALB/c mice. Conditions: 30 mg/kg IP, 24 hours. The source says: One of the primary signals modulating NPY function in feeding control is leptin. This hormone is elevated in the fed state and inhibits NPY production and feeding (Schwartz, et al., 1996, Diabetes, 45:531) in a manner similar to that observed with C-75 treatment. Leptin was an attractive candidate as its primary site of production, white adipose tissue (Zhang, et al., 1994, Nature, 372:425), is a site of fatty acid synthesis and expresses high levels of FAS. To test for increased leptin release as the signal mediating C-75 regulation of NPY, serum leptin levels were assessed in fed (end of light cycle) fasted and C-75-treated mice. BALB/c mice treated with RPMI vehicle (o) or 30 mg/kg C-75 (▪) I.P. and free fed, or fasted ([…]) for 24 hours were weighed, decapitated and exsanguinated. Serum leptin levels were determined using a QUANTIKINE™ murine leptin ELISA (R&D Systems) and plotted against total body weight (FIG. 3A). […] This reduction correlates with the reduction in body weight, presumably body fat, resulting from C-75 treatment FIG. 3A). […] Northern blot analysis of leptin message levels in white adipose tissue from the same animals (performed as described above) supports this observation (data not shown).
In general terms: An ELISA detects its analyte on a solid surface through an enzyme-linked reagent.

In data set [4] the test system is liver and white adipose tissue. In words: Histology of liver and white adipose tissue of treated ob/ob mice. The data set is classed as in vivo. The source says:
C-75 treatment not only led to weight loss, but also corrected many of the pathological consequences that result from the extreme obesity of ob/ob mice. Liver samples from vehicle and C-75 treated mice (from FIG. 3B) were fixed in formalin and paraffin embedded. Tissue sections (4 μm) were stained with hematoxylin and eosin. […] The observation that C-75 acts through a leptin independent mechanism is particularly promising in that the majority of obese individuals appear to be relatively resistant to leptin's effects (Caro, et al., 1996, Lancet, 348:159).

Data set [5] can be described thus: Weight loss of C-75-treated versus fasted mice. The data set is classed as in vivo, BALB/c mice. Conditions: 30 mg/kg, 24 hours, n=7. From the text: To determine whether the weight loss is attributable entirely to suppression of feeding, treatment with a dose of C-75 that completely suppresses feeding was compared with fasting. Both fasting and C-75 led to significant weight loss relative to control; however, in many experiments the C-75 treated mice lost more weight than did the fasted animals (FIG. 2A). The normal response to fasting is to reduce energy utilization to limit depletion of energy stores (Loftus, 1999). If C-75 treatment results in a “perceived fed state”, it may allow maintenance of a normal metabolic rate as well as inhibition of feeding.
Male BALB/c mice 19-21 g were preweighed and treated with vehicle or 30 mg/kg C-75 and allowed free access to food, or were denied all access to food (fasted). After 24 hours, mice were weighed. Change from initial body weight is shown in FIG. 2A, expressed as mean +/±SEM (n=7). C-75 treated mice lost 45% more weight than did the fasted animals.

Turning to `C=C1C(=O)OC(CCCCCCCC)C1C(=O)O` (stereo not shown) [C-75], in the data set with hepatic malonyl-CoA, the “increase in the level of hepatic malonyl-CoA” value is on record as 110%. Also, the cytoplasmic triglyceride accumulation result in the data set on 3T3-L1 adipocytes is on record as “markedly reduces cytoplasmic triglyceride accumulation”. In data set [1], the “body weight of ob/ob mice” value was “substantial reduction in the body weight”. Further, in the data set on feeding behavior [2], the “reduction in food intake” value is listed as “greater than 90%”. In addition, the “inhibition of feeding by ICV administration” value in the data set on feeding behavior [3] was 82%. For the same compound, the serum leptin levels entry with leptin is “reduction in leptin levels”. Besides, the “liver histology (hepatomegaly and fatty liver)” value in data set [4] (14 days treatment) is “marked reduction in the hepatomegaly and fatty liver”. Besides, the “mean adipocyte size in white adipose tissue” value in data set [4] (14 days treatment (not shown)) is given as “dramatic reduction in mean adipocyte size”. Also, the “histological abnormality from chronic treatment” value in data set [4] (liver and white adipose tissue) was “no evidence of histological abnormality”. Besides, the “more weight lost than fasted animals” value in data set [5] came to 45%.
